Read-outs that look alike come from different tables or passages of the source.
What was measured:
Type in all cases: cell-based
[1] = system: Escherichia coli (ATCC 25922); experiment: Antimicrobial activity (MBC), E. coli ATCC 25922
Experimental: (§1) To determine antimicrobial activity, Escherichia coli (ATCC 25922), Staphylococcus aureus (ATCC 29213), Pseudomonas aeruginosa (ATCC 27853), and Candida albicans (ATCC 10231) were used in primary screening. In addition, Escherichia coli (MCC 80392), Staphylococcus aureus (MCC 91731), Pseudomonas aeruginosa (MCC 4438), and Candida albicans (MCC 50319), provided by Alcon Laboratories, Fort Worth, Tex., were used. The microbial cultures were diluted in sterile saline pH 4 to prepare inocula. Test compounds were titrated by stepwise two-fold dilutions in sterile saline pH 4. A total of 1.0×10^5 to 1.0×10^6 Colony Forming Units (CFU)/mL microbe was added to each tube, mixed by gentle vortexing, and then incubated at room temperature for 1 h. Microbial plating on Petri dishes (Tryptic Soy agar or Saboraud's Dextrose agar) was performed immediately after the designated exposure after neutralization of the test article dilutions in Dey-Engley Broth. Plates were incubated at 37° C., and the numbers of microbes were counted by direct colony count to quantitate the surviving microbes as CFU/mL. Positive growth controls were made with sterile 0.9% saline. Compounds were dissolved in unbuffered isotonic saline (SAL) or phosphate buffered saline (PBS) at pH 4 or pH 7 (using HCl and/or NaOH as needed). All compounds were tested three times. The results are tabulated to show the comparison of antimicrobial effectiveness range of the compounds.
(§2) Data shown are the Minimum Bactericidal Concentration (MBC) or Minimum Fungicidal Concentration (MFC) (≧99.9% kill) in μg/mL.

[2] = system: Staphylococcus aureus (ATCC 29213); experiment: Antimicrobial activity (MBC), S. aureus ATCC 29213
Experimental: as §1, §2

[3] = system: Candida albicans (ATCC 10231); experiment: Antimicrobial activity (MFC), C. albicans ATCC 10231
Experimental: as §1, §2

[4] = system: Escherichia coli (MCC 80392); experiment: Antimicrobial activity (MBC), E. coli MCC 80392; details: 1 h exposure at room temperature
Experimental: as §1, §2

[5] = system: Staphylococcus aureus (MCC 91731); experiment: Antimicrobial activity (MBC), S. aureus MCC 91731; details: 1 h exposure at room temperature
Experimental: as §1, §2

[6] = system: Candida albicans (MCC 50319); experiment: Antimicrobial activity (MFC), C. albicans MCC 50319; details: 1 h exposure at room temperature
Experimental: as §1, §2

[7] = system: mouse fibroblast cells (ATCC CCL-1, L929); experiment: Cytotoxicity, WST-8 colorimetric assay; details: 60 min exposure
Experimental: Cytotoxicity was assessed by a colorimetric assay system using the Dojindo™ cell counting kit containing 2-(2-methoxy-4-nitrophenyl)-3-(4-nitrophenyl)-5-(2,4-disulfophenyl)-2H-tetrazolium, monosodium salt (WST-8). In this assay, the WST-8 reagent was bioreduced by cellular dehydrogenases to a formazan product that is highly soluble in tissue culture medium.
In a standard assay, mouse fibroblast cells (ATCC CCL-1, L929), were cultured in Minimum Essential Medium, α-medium supplemented with 10% heat inactivated fetal bovine serum, L-glutamine, penicillin and streptomycin. Cells were trypsinized and counted under the microscope and seeded at 1.5×10^4 total cells per 100 μL per well of a flat-bottom 96-well plate in order to achieve ˜80% confluence after overnight incubation at 37° C. On the day of the assay, the tissue culture medium was removed and replaced with 30 μL of fresh medium.
Test articles were prepared as 2-fold serial dilutions and 170 μL of each dilution is added into each of 4-wells (total volume per well=200 μL). The test plate was then returned to the 37° C. incubator for 60 min. Immediately after the exposed time, test article from each well was replaced with 200 μL of fresh media. Plates were incubated at 37° C. for 18-20 hours. The following day growth medium was replaced with 100 μL/well of fresh medium containing 10 μL WST-8 reagent. Cells were incubated under growth conditions (5% CO2 at 37° C. humidified incubator), protected from light, until color development was achieved (usually 1-4 hours). Absorbance was read at 450 nm with reference wavelength at 750 nm using Molecular Device SpectraMax M5 plate reader. Untreated or vehicle only treated cells receiving WST-8 reagent served as positive cell proliferation controls.
The absorbance A450/750 from each well of untreated cells and from each well within the dilution series was measured. […] Next, a non-linear regression (curve fit) analysis was performed on all the absorbance data measured from the dilution series, including the absorbance data obtained from wells of the untreated control cells. For each dilution within the dilution series, an average A450/750 was calculated from the four replicate wells.

[8] = system: Pseudomonas aeruginosa (MCC 4438); experiment: Antimicrobial activity (MBC), P. aeruginosa MCC 4438; details: 1 h exposure at room temperature
Experimental: as §1, §2

[9] = ATCC25922, E. coli ATCC 25922, pH 4 (Sal), 1 h exposure at room temperature, read-out: Minimum Bactericidal Concentration (MBC) (≧99.9% kill)
[10] = ATCC29213, S. aureus ATCC 29213, pH 4 (Sal), 1 h exposure at room temperature, read-out: Minimum Bactericidal Concentration (MBC) (≧99.9% kill)
[11] = ATCC10231, C. albicans ATCC 10231, pH 4 (Sal), 1 h exposure at room temperature, read-out: Minimum Fungicidal Concentration (MFC) (≧99.9% kill)

CC(C)(C[N+](C)(C)C)N(Cl)Cl [Compound 21-30, 2-(Dichloroamino)-N,N,N-2-tetramethylpropan-1-ammonium chloride]
MBC ([1]; ATCC25922, 1 h, pH 4, read-out: Minimum Bactericidal Concentration (MBC) (≧99.9% kill)): 16 µg/mL
MBC ([2]; ATCC29213, 1 h, pH 4, read-out: Minimum Bactericidal Concentration (MBC) (≧99.9% kill)): 8 µg/mL
MFC ([3]; ATCC10231, 1 h, pH 4, read-out: Minimum Fungicidal Concentration (MFC) (≧99.9% kill)): 128 µg/mL
Minimum Bactericidal Concentration (MBC) (≧99.9% kill) ([4]; pH 4 (Sal)): 16 µg/mL
Minimum Bactericidal Concentration (MBC) (≧99.9% kill) ([4]; pH 7 (PBS)): 512 µg/mL
Minimum Bactericidal Concentration (MBC) (≧99.9% kill) ([5]; pH 4 (Sal)): 8 µg/mL
Minimum Bactericidal Concentration (MBC) (≧99.9% kill) ([5]; pH 7 (PBS)): 512 µg/mL
Minimum Fungicidal Concentration (MFC) (≧99.9% kill) ([6]; pH 4 (Sal)): 256 µg/mL
Minimum Fungicidal Concentration (MFC) (≧99.9% kill) ([6]; pH 7 (PBS)): >2048 µg/mL
CT50 (concentration that results in survival of 50% of the cells) ([7]; pH 4 (Sal)): 0.5 mM
CT50 (concentration that results in survival of 50% of the cells) ([7]; pH 7 (PBS)): 0.5 mM

CC(C)(CC[N+](C)(C)C)N(Cl)Cl.[Cl-] [Compound 21-32, 3-(Dichloroamino)-N,N,N-3-tetramethylbutan-1-ammonium chloride]
MBC [1, 9]: 2 µg/mL
MBC ([1]; ATCC25922, E. coli ATCC 25922, pH 7 (PBS), 1 h exposure at room temperature, read-out: Minimum Bactericidal Concentration (MBC) (≧99.9% kill)): 128 µg/mL
MBC [2, 10]: 2 µg/mL
MBC ([2]; ATCC29213, S. aureus ATCC 29213, pH 7 (PBS), 1 h exposure at room temperature, read-out: Minimum Bactericidal Concentration (MBC) (≧99.9% kill)): 512 µg/mL
MFC [3, 11]: 64 µg/mL
MFC ([3]; ATCC10231, C. albicans ATCC 10231, pH 7 (PBS), 1 h exposure at room temperature, read-out: Minimum Fungicidal Concentration (MFC) (≧99.9% kill)): > 4100 µg/mL
Minimum Bactericidal Concentration (MBC) (≧99.9% kill) ([4]; pH 4 (Sal)): 8 µg/mL
Minimum Bactericidal Concentration (MBC) (≧99.9% kill) ([4]; pH 7 (PBS)): 256 µg/mL
Minimum Bactericidal Concentration (MBC) (≧99.9% kill) ([5]; pH 4 (Sal)): 1 µg/mL
Minimum Bactericidal Concentration (MBC) (≧99.9% kill) ([5]; pH 7 (PBS)): 256 µg/mL
Minimum Fungicidal Concentration (MFC) (≧99.9% kill) ([6]; pH 4 (Sal)): 32 µg/mL
Minimum Fungicidal Concentration (MFC) (≧99.9% kill) ([6]; pH 7 (PBS)): >1024 µg/mL
Minimum Bactericidal Concentration (MBC) (≧99.9% kill) ([8]; pH 7 (PBS)): 512 µg/mL
CT50 (concentration that results in survival of 50% of the cells) ([7]; pH 4 (Sal)): 1.7 mM
CT50 (concentration that results in survival of 50% of the cells) ([7]; pH 7 (PBS)): 1.8 mM

CC(C)(CC[N+]1(C)CCCCC1)N(Cl)Cl.[Cl-] [Compound 21-80, 1-(3-(Dichloroamino)-3-methylbutyl)-1-methylpiperidinium chloride]
MBC [1, 9]: 2 µg/mL
MBC [2, 10]: 4 µg/mL
MFC [3, 11]: 32 µg/mL
Minimum Bactericidal Concentration (MBC) (≧99.9% kill) ([4]; pH 4 (Sal)): 4 µg/mL
Minimum Bactericidal Concentration (MBC) (≧99.9% kill) ([4]; pH 7 (PBS)): 256 µg/mL
Minimum Bactericidal Concentration (MBC) (≧99.9% kill) ([5]; pH 4 (Sal)): 4 µg/mL
Minimum Bactericidal Concentration (MBC) (≧99.9% kill) ([5]; pH 7 (PBS)): >256 µg/mL
Minimum Fungicidal Concentration (MFC) (≧99.9% kill) ([6]; pH 4 (Sal)): 64 µg/mL
Minimum Fungicidal Concentration (MFC) (≧99.9% kill) ([6]; pH 7 (PBS)): >512 µg/mL
Minimum Bactericidal Concentration (MBC) (≧99.9% kill) ([8]; pH 4 (Sal)): 4 µg/mL
Minimum Bactericidal Concentration (MBC) (≧99.9% kill) ([8]; pH 7 (PBS)): >256 µg/mL
CT50 (concentration that results in survival of 50% of the cells) ([7]; pH 4 (Sal)): 0.9 mM

CC[N+](C)(CC)CCC(C)(C)N(Cl)Cl.[Cl-] [Compound 21-114, 3-(Dichloroamino)-N,N-diethyl-N-3-dimethylbutan-1-ammonium chloride]
MBC [1, 9]: 8 µg/mL
MBC [2, 10]: 2 µg/mL
MFC [3, 11]: 16 µg/mL
Minimum Bactericidal Concentration (MBC) (≧99.9% kill) ([4]; pH 4 (Sal)): 2 µg/mL
Minimum Bactericidal Concentration (MBC) (≧99.9% kill) ([4]; pH 7 (PBS)): 512 µg/mL
Minimum Bactericidal Concentration (MBC) (≧99.9% kill) ([5]; pH 4 (Sal)): 4 µg/mL
Minimum Bactericidal Concentration (MBC) (≧99.9% kill) ([5]; pH 7 (PBS)): 512 µg/mL
Minimum Bactericidal Concentration (MBC) (≧99.9% kill) ([8]; pH 4 (Sal)): 4 µg/mL
Minimum Bactericidal Concentration (MBC) (≧99.9% kill) ([8]; pH 7 (PBS)): 1024 µg/mL
CT50 (concentration that results in survival of 50% of the cells) ([7]; pH 4 (Sal)): 1.3 mM
